The test concerns the target superoxide-dependent, iron-promoted lipid peroxidation of native rat heart cardiac lipid liposomes. The test can be described thus: Lipid peroxidation inhibition (in vitro testing of antiperoxidative agents, ANTI-OX), hypoxanthine-xanthine oxidase-Fe3+.ADP, rat cardiac liposomes, MDA equivalents. It counts as biochemical. The note with it: 60 min, 37° C., screened at 1.0 μM, IC50 determined if inhibition ≥ 50%, read-out: ANTI-OX IC-50. As for the experimental part:
The test system employs hypoxanthine-xanthine oxidase (XO)-Fe^3+. ADP as the free radical generator and purified, native rat-heart membrane phosphoglyceride in Hepes-KCl buffer, pH 7.4, as the substrate. Inhibition of superoxide-dependent, iron-promoted lipid peroxidation in the linear reaction phase (after 1 hour of reaction) is measured as the net formation of thiobarbituric acid (TBA)-reactive material. In this system, the TBA-reactive material, isolated by HPLC, is exclusively (>95%) malondialdehyde (MDA), a fragmentation end-product arising from fatty acyl hydroperoxides and cyclic endoperoxides. […]
a) Isolation and purification of Rat Cardiac Lipid
Conscious male Sprague-Dawley rats (~275g) maintained on a normal rodent diet were decapitated. The hearts were rapidly removed and perfused via the aorta with ice-cold 10 mM Hepes buffer, pH 7.4. The aorta and atria were removed, and the ventricular tissue was blotted and weighed (wet weight). The hearts were minced on ice with scissors and finally homogenized (100 mg tissue/ml ice-cold buffer) for 15 seconds (3×5 seconds) with a Tekmar Tissumizer at "maximal" setting. The homogenate was filtered through 4-ply cheesecloth, and homogenate lipids were extracted and purified by a modified Bligh-Dyer procedure (M.D. Marshall and M. Kates, Biochem. Biophys. Acta 260, 558 (1972). The cardiac lipids were stored in CHCl3 under nitrogen at -20° C. […]
b) Preparation of Cardiac Liposomes
Liposomes were prepared from extracted and purified, native rat heart cardiac lipid and were used as substrate for free-radical attack. Cardiac lipid (in CHCl3) was placed in a glass flask and evaporated to dryness under nitrogen at room temperature; the flask was gently rotated during evaporation to yield a thin, dry lipid film. The lipid was taken up in 10 mM Hepes-0.145M KCl, pH 7.4, and was resuspended by indirect an aerobic sonification for 15 minutes at room temperature. The liposome suspension was used immediately. […]
c) preparation of Fe^3+ -ADP Chelate
A chelate was formed in Hepes-KCl buffer between Fe^3+ (1.0mM FeCl3, final concentration) and ADP (10mM, final concentration) at pH 7.4 with stirring at room temperature. Chelation was allowed to proceed for 90 minutes prior to use. The chelate was prepared fresh for each days experiments to ensure iron solubility, effective chelation, and valence state. […]
d) Thiobarbituric Acid Reaction or Determination of Malondialdehvde Equivalents Malondialdehyde (MDA) equivalents were measured as thiobarbituric acid (TBA)-reactive material by the following modification of published methods. The reaction mixture. prepared fresh daily, contained water: BHT ([…] BHT in absolute ethanol): TBA (1.5% TBA in 0.2M Tris, pH 7.0) in the volume ratio 1:1:5. To each 1.0 ml of peroxidation reaction assayed (see below), 0.35 ml reaction mixture was added. After thorough mixing, the tubes were incubated in an 80° C. shaking water bath for 30 minutes. After this time, the tubes were plunged into an ice water bath, and the reaction was immediately stopped with 0.5 ml ice-cold 91% TCA followed by 2.0 ml CHCl3 After centrifugation for 30 minutes at 2000 rpm in a Sorval HL-8 rotor (4° C.), the absorbance of the washed, pink upper phase was read at 532 nm. A standard curve (0.8-40.0 nmol MDA) was run with every assay. For each curve, MDA was freshly prepared by acidification of 1,1,3,3 -tetraethoxypropane with 75% TCA-2.3N HCl (0.15 ml acid mixture with 1.0 ml suitably diluted tetraethoxypropane). Computer-assisted regression analysis of the standard curve was used to quantify the molar amounts of MDA equivalents in the experimental samples. […]
e) Lipid peroxidation Reaction
Cardiac liposomes were subjected to superoxidedependent. iron-promoted peroxidation in glass vessels to avoid the well-known antioxidant effects of many common polymerizing agents used to fabricate plastic labware. […]

SMILES strings stand for the structures. A value given as a limit tells only on which side of the number the result lay.

As to `COc1cc(CO)cc2cc(C3(C)CCc4c(C)c(O)c(C)c(C)c4O3)oc12` (racemic) [Example 55, rac-2-(3,4-Dihydro-6-hydroxy-2,5,7,8-tetramethyl-2H-1-benzopyran-2-yl)-7-methoxybenzofuran-5-methanol], the IC50 stood at 850 nM.

For the compound `Cc1c(C)c2c(c(C)c1O)CCC(C)(C#Cc1ccc(F)c(F)c1)O2` (racemic) [Example 36, rac-2-[(3,4-Difluorophenyl)ethynyl]-3,4-dihydro-2,5,7,8-tetramethyl-2H-1-benzopyran-6-ol], the IC50 is over 1000 nM.

As for `COc1cccc(C#CC2(C)CCc3c(C)c(O)c(C)c(C)c3O2)c1` (racemic) [Example 22, rac-3,4-Dihydro-2-(3-methoxyphenyl)ethynyl)-2,5,7,8-tetra-methyl-2H-1-benzopyran-6-ol], the IC50 is over 1000 nM.

`COc1ccc(CCC2(C)CCc3c(C)c(O)c(C)c(C)c3O2)cc1OC(C)=O` (racemic) [Example 60, rac-2-{2-[3-(Acetyloxy)-4-methoxyphenyl]ethyl}-3,4-dihydro-2,5,7,8-tetramethyl-2H-1-benzopyran-6ol]: the IC50 was over 1000 nM.

Consider `Cc1c(C)c2c(c(C)c1O)CCC(C)(C#Cc1ccc(-c3ccccn3)s1)O2` (racemic) [Example 26, rac-3,4-Dihydro-2,5,7,8-tetramethyl-2-{[5-(2-pyridinyl)-2-thienyl]ethynyl}-2H-1-benzopyran-6-ol], for which the IC50 amounted to 550 nM.

For `CCCCc1ccc(CCC2(C)CCc3c(C)c(O)c(C)c(C)c3O2)s1` (racemic) [Example 66, rac-2-[2-(5-Butyl-2-thienyl)ethyl]-3,4-dihydro-2,5,7,8-tetramethyl-2H-1-benzopyran-6-ol], the IC50 is over 1000 nM.

For `Cc1c(C)c2c(c(C)c1O)CCC(C)(C#Cc1cnc3ccccc3c1)O2` (racemic) [Example 33, rac-3,4-Dihydro-2,5,7,8-tetramethyl-2-(3-quinolinylethynyl)-2H-1-benzopyran-6-ol], the IC50 was determined as 850 nM.

For `Cc1c(C)c2c(c(C)c1O)CCC(C)(CCc1ccc(-c3ccccn3)s1)O2` (racemic) [Example 65, rac-3,4-Dihydro-2,5,7,8-tetramethyl-2-{2-[5-(2-pyridinyl)-2-thienyl]ethyl}-2H-1-benzopyran-6ol], the IC50 is over 1000 nM.

Regarding `COc1cc(C=O)cc(C#CC2(C)CCc3c(C)c(O)c(C)c(C)c3O2)c1O` (racemic) [Example 28, rac-3-[(3,4-Dihydro-6-hydroxy-2,5,7,8-tetramethyl-2H-1-benzopyran-2-yl)ethynyl]-4-hydroxy-5-methoxybenzaldehyde], the IC50 is over 1000 nM.

Turning to `Cc1c(C)c2c(c(C)c1O)CCC(C)(C#Cc1ccccc1N)O2` (racemic) [Example 40, rac-2-[(2-Aminophenyl)ethynyl]-3,4-dihydro-2,5,7,8-tetramethyl-2H-1-benzopyran-6-ol], the IC50 was over 1000 nM.

As for `Cc1c(C)c2c(c(C)c1O)CCC(C)(C#Cc1ccc(-c3cccnc3)cc1)O2` (racemic) [Example 24, rac-3,4-Dihydro-2,5,7,8-tetramethyl-2-{[4-(3-pyridinyl)-phenyl]ethynyl}-2H-1-benzopyran-6-ol], the IC50 came out at 800 nM.

As to `Cc1c(C)c2c(c(C)c1O)CCC(C)(C#Cc1ccc3c(c1)N(C)C(=O)CO3)O2` (stereo not shown) [Example 48], the IC50 is 750 nM.

For `COC(=O)c1cc(C#CC2(C)CCc3c(C)c(O)c(C)c(C)c3O2)ccc1O` (racemic) [Example 23, rac-5-(3,4-Dihydro-6-hydroxy-2,5,7,8-tetramethyl-2H-1-benzopyran-2-yl)ethynyl]-2-hydroxybenzoic acid methyl ester], the IC50 is 900 nM.

Turning to `COC(=O)c1cc(CCC2(C)CCc3c(C)c(O)c(C)c(C)c3O2)ccc1O` (racemic) [Example 63, rac-5-[2-(3,4-Dihydro-6-hydroxy-2,5,7,8-tetramethyl-2H-1-benzopyran-2-yl)ethyl]-2-hydroxybenzoic acid methyl ester], the IC50 is over 1000 nM.

On to `COc1cccc(CCC2(C)CCc3c(C)c(O)c(C)c(C)c3O2)c1` (racemic) [Example 62, rac-3,4-Dihydro-2-[2-(3-methoxyphenyl)ethyl]-2,5,7,8-tetramethyl-2H-1-benzopyran-6-ol], for which the IC50 is over 1000 nM.

Take `COc1cc(CO)cc(C#CC2(C)CCc3c(C)c(O)c(C)c(C)c3O2)c1O` (racemic) [Example 29, rac-3-[(3,4-Dihydro-6-hydroxy-2,5,7,8-tetramethyl-2H-1-benzopyran-2-yl)ethynyl]-4-hydroxy-5-methoxybenzenemethanol]: the IC50 was over 1000 nM.

As for `Cc1c(C)c2c(c(C)c1O)CCC(C)(CCc1ccc(-c3cccnc3)cc1)O2` (racemic) [Example 64, rac-3,4-Dihydro-2,5,7,8-tetramethyl-2-{2-[4-(3-pyridinyl)-phenyl]ethyl}-2H-1-benzopyran-6-ol], the IC50 is over 1000 nM.

Consider `Cc1c(C)c2c(c(C)c1O)CCC(C)(C#Cc1ccccc1O)O2` (racemic) [Example 50 (2-HO-phenyl), rac-3,4-Dihydro-2-[(2-hydroxyphenyl)ethynyl]-2,5,7,8-tetramethyl-2H-1-benzopyran-6-ol], for which the IC50 was determined as 700 nM.

In the case of `Cc1c(C)c2c(c(C)c1O)CCC(C)(C#Cc1cncc3ccccc13)O2` (racemic) [Example 34, rac-3,4-Dihydro-2-[(4-isoquinolinyl)ethynyl]-2,5,7,8-tetramethyl-2H-1-benzopyran-6-ol], the IC50 was over 1000 nM.

Turning to `COc1ccc(C#CC2(C)CCc3c(C)c(O)c(C)c(C)c3O2)cc1OC(C)=O` (racemic) [Example 20, rac-2-[(3-Acetyloxy-4-methoxyphenyl)ethynyl]-3.4-dihydro-2,5,7,8-tetramethyl-2H-1-benzopyran-6-ol], the IC50 was over 1000 nM.

For `COc1cc(C=NO)cc(C#CC2(C)CCc3c(C)c(O)c(C)c(C)c3O2)c1O` (racemic) [Example 30, rac-3-[(3,4-Dihydro-6-hydroxy-2,5,7,8-tetramethyl-2H-1-benzopyran-2yl)ethynyl]-4-hydroxy-5-methoxybenzaldehydeoxime], the IC50 is over 1000 nM.

With `Cc1c(C)c2c(c(C)c1O)CCC(C)(C#Cc1cccc3ccccc13)O2` (racemic) [Example 39, rac-3,4-Dihydro-2,5,7,8-tetramethyl-2-(1-naphthyl)ethynyl-2H-1-benzopyran-6-ol], the IC50 is over 1000 nM.

The record behind these values is patent publication US5015661A, “Chromanes and their pharmaceutical compositions and methods” (Hoffmann-La Roche Inc., priority 1989, dated 1991).
